According to patent US9365541B2, “Compounds for use in the treatment of parasitic diseases” (IRBM—SCIENCE PARK S.P.A., priority 2012, dated 2016):

Assays:
human HDAC1 = target: T1, human HDAC1 (Homo sapiens, UniProt Q13547); experiment: Homo sapiens HDAC1 inhibition assay (Fluor-de-Lys, enzymatic); type: biochemical; conditions: human HDAC enzymatic assay; read-out: hHDAC IC50
T1 construct: made in house; host or cells: HeLa (ATCC CCL-2), mammalian cells
In short: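 Product developed with trypsin developer containing 2 μM TSA to stop the reaction; fluorescence measures deacetylase activity, inversely related to inhibition.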

[1] = system: Plasmodium falciparum 3D7; experiment: P. falciparum growth inhibition assay (Pf-LDH); type: cell-based; conditions: Plasmodium falciparum, Erythrocyte; P. falciparum 3D7 infected erythrocytes, 72 h incubation, PfLDH readout
In short: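 P. falciparum 3D7 (chloroquine-sensitive) at 0.25% parasitemia and 2% hematocrit was incubated with compound for 72 h at 37° C under 4% CO2/3% O2/93% N2. After freeze-thaw, PfLDH activity was read at 650 nm with lactate/APAD/NBT/diaphorase mix (pH 8.0).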

T1 sequence (Q13547 whole entry): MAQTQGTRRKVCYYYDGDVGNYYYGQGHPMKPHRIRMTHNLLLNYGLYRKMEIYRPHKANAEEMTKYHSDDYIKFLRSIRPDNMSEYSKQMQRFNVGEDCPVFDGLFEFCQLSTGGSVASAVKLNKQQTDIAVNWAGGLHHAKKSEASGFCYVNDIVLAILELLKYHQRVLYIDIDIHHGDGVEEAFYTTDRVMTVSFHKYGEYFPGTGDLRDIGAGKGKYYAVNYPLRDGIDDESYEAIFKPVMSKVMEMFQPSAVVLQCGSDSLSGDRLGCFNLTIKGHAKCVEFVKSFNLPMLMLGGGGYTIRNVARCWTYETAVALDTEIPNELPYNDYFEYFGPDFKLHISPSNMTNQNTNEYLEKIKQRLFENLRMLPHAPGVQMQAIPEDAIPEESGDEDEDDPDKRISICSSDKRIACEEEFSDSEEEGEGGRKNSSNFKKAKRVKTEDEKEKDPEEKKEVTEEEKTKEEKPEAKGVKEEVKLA

Structure (SMILES) | IC50 (human HDAC1) [µM] | EC50 [1] [µM]
CNC(=O)CCCCC[C@H](NC(=O)CCN1CCCCC1)c1ncc(-c2ccc(C(F)(F)F)cc2)[nH]1 [Entry 101, (S)-N-methyl-7-(3-(piperidin-1-yl)propanamido)-7-(5-(4-(trifluoro-methyl)phenyl)-1H-imidazol-2-yl)heptanamide] | > 5 | 1 to 5
CNC(=O)CCCCC[C@H](NC(=O)c1nc[nH]n1)c1ncc(-c2cc3ccccc3nc2OC)[nH]1 [Entry 102, (S)-N-(1-(5-(2-methoxyquinolin-3-yl)-1H-imidazol-2-yl)-7-(methylamino)-7-oxoheptyl)-1H-1,2,4-triazole-3-carboxamide] | > 5 | > 5
CNC(=O)CCCCC[C@H](NC(=O)C(C)n1cccn1)c1ncc(-c2cc3ccccc3nc2OC)[nH]1 (some centres unmarked) [Entry 103] | > 5 | 1 to 5
CNC(=O)CCCCC[C@H](NC(=O)[C@@H]1CCCN1C)c1ncc(-c2cc3ccccc3nc2OC)[nH]1 [Entry 104, (S)-N-((S)-1-(5-(2-methoxyquinolin-3-yl)-1H-imidazol-2-yl)-7-(methylamino)-7-oxoheptyl)-1-methylpyrrolidine-2-carboxamide] | > 5 | > 5
CNC(=O)CCCCC[C@H](NC(=O)c1cncs1)c1ncc(-c2ccc3cc(OC)ncc3c2)[nH]1 [Entry 105, (S)-N-(1-(5-(3-methoxyisoquinolin-7-yl)-1H-imidazol-2-yl)-7-(methylamino)-7-oxoheptyl)thiazole-5-carboxamide] | < 1 | < 1
CNC(=O)CCCCC[C@H](NC(=O)Cc1ccccn1)c1ncc(-c2cc3ccccc3nc2OC)[nH]1 [Entry 106] | 1 to 5 | > 5
CNC(=O)CCCCC[C@H](NC(=O)c1cncs1)c1ncc(-c2ccc3nc(OC)ccc3c2)[nH]1 [Entry 107, (S)-N-(1-(5-(2-methoxyquinolin-6-yl)-1H-imidazol-2-yl)-7-(methylamino)-7-oxoheptyl)thiazole-5-carboxamide] | < 1 | < 1
CNC(=O)CCCCC[C@H](NC(=O)c1cncs1)c1ncc(-c2ccc(-c3ccccc3)cc2)[nH]1 [Entry 108, (S)-N-(1-(5-([1,1′-biphenyl]-4-yl)-1H-imidazol-2-yl)-7-(methylamino)-7-oxoheptyl)thiazole-5-carboxamide] | > 5 | > 5
CNC(=O)CCCCC[C@H](NC(=O)c1cncs1)c1ncc(-c2ccc(-c3cccs3)cc2)[nH]1 [Entry 109, (S)-N-(7-(methylamino)-7-oxo-1-(5-(4-(thiophen-2-yl)phenyl)-1H-imidazol-2-yl)heptyl)thiazole-5-carboxamide] | 1 to 5 | 1 to 5
CNC(=O)CCCCC[C@H](NC(=O)Cc1cnc2ccccc2c1)c1ncc(-c2ccc(-n3cccn3)cc2)[nH]1 [Entry 110] | < 1 | 1 to 5
CNC(=O)CCCCC[C@H](NC(=O)C1(F)CCN(C)CC1)c1ncc(-c2ccc3ccncc3c2)[nH]1 [Entry 111, (S)-4-fluoro-N-(1-(5-(isoquinolin-7-yl)-1H-imidazol-2-yl)-7-(methylamino)-7-oxoheptyl)-1-methylpiperidine-4-carboxamide] | 1 to 5 | > 5
CNC(=O)CCCCC[C@H](NC(=O)c1cncs1)c1ncc(-c2ccc3[nH]nnc3c2)[nH]1 [Entry 112, (S)-N-(1-(5-(1H-benzo[d][1,2,3]triazol-5-yl)-1H-imidazol-2-yl)-7-(methylamino)-7-oxoheptyl)thiazole-5-carboxamide] | > 5 | > 5
CNC(=O)CCCCC[C@H](NC(=O)Cc1cnccn1)c1ncc(-c2ccc3ccccc3c2)[nH]1 [Entry 113] | 1 to 5 | 1 to 5
CNC(=O)CCCCC[C@H](NC(=O)c1ccc2cnccc2c1)c1ncc(-c2ccc3ccccc3c2)[nH]1 [Entry 114, (S)-N-(7-(methylamino)-1-(5-(naphthalen-2-yl)-1H-imidazol-2-yl)-7-oxo-heptyl)isoquinoline-6-carboxamide] | 1 to 5 | 1 to 5
CNC(=O)CCCCC[C@H](NC(=O)Cc1n[nH]c(=O)[nH]1)c1ncc(-c2ccc3ccccc3c2)[nH]1 [Entry 115] | 1 to 5 | 1 to 5
CNC(=O)CCCCC[C@H](NC(=O)Cn1cnnc1)c1ncc(-c2ccc3ccccc3c2)[nH]1 [Entry 116, (S)-7-(2-(4H-1,2,4-triazol-4-yl)acetamido)-N-methyl-7-(5-(naphthalen-2-yl)-1H-imidazol-2-yl)heptanamide] | 1 to 5 | 1 to 5
CNC(=O)CCCCC[C@H](NC(=O)c1ccc(-n2cnnn2)cc1)c1ncc(-c2ccc3ccccc3c2)[nH]1 [Entry 117, (S)-N-(7-(methylamino)-1-(5-(naphthalen-2-yl)-1H-imidazol-2-yl)-7-oxoheptyl)-4-(1H-tetrazol-1-yl)benzamide] | 1 to 5 | 1 to 5

Structure (SMILES) | IC50 (human HDAC1) [µM] | EC50 [1] [µM]
CNC(=O)CCCCC[C@H](NC(=O)C1CCN(C)CC1)c1ncc(-c2ccc3ccncc3c2)[nH]1 [Entry 118, (S)-N-(1-(5-(isoquinolin-7-yl)-1H-imidazol-2-yl)-7-(methylamino)-7-oxoheptyl)-1-methylpiperidine-4-carboxamide] | 1 to 5 | 1 to 5
CNC(=O)CCCCC[C@H](NC(=O)Cn1ccc(C)n1)c1ncc(-c2ccc3ccncc3c2)[nH]1 [Entry 119] | 1 to 5 | 1 to 5
CNC(=O)CCCCC[C@H](NC(=O)c1cncs1)c1ncc(-c2ccc(-c3ncccn3)cc2)[nH]1 [Entry 120, (S)-N-(7-(methylamino)-7-oxo-1-(5-(4-(pyrimidin-2-yl)phenyl)-1H-imidazol-2-yl)heptyl)thiazole-5-carboxamide] | 1 to 5 | 1 to 5
CNC(=O)CCCCC[C@H](NC(=O)C1(C)CCCO1)c1ncc(-c2ccc3ccncc3c2)[nH]1 (stereo partly drawn) [Entry 121, N-((S)-1-(5-(isoquinolin-7-yl)-1H-imidazol-2-yl)-7-(methylamino)-7-oxoheptyl)-2-methyltetrahydrofuran-2-carboxamide] | > 5 | > 5
CNC(=O)CCCCC[C@H](NC(=O)CCc1c(C)nc2ncnn2c1C)c1ncc(-c2ccc3ccncc3c2)[nH]1 [Entry 122] | < 1 | < 1
CNC(=O)CCCCC[C@H](NC(=O)C1(C)CCCO1)c1ncc(-c2ccc(-c3ccn(C)n3)cc2)[nH]1 (stereo partly drawn) [Entry 123, 2-methyl-N-((S)-1-(5-(4-(1-methyl-1H-pyrazol-3-yl)phenyl)-1H-imidazol-2-yl)-7-(methylamino)-7-oxoheptyl)tetra-hydrofuran-2-carboxamide] | > 5 | > 5
CNC(=O)CCCCC[C@H](NC(=O)c1cnc(CN2CCCC2)s1)c1ncc(-c2ccc(-c3ccn(C)n3)cc2)[nH]1 [Entry 124, (S)-N-(1-(5-(4-(1-methyl-1H-pyrazol-3-yl)phenyl)-1H-imidazol-2-yl)-7-(methylamino)-7-oxoheptyl)-2-(pyrrolidin-1-ylmethyl)thiazole-5-carboxamide] | 1 to 5 | < 1
CNC(=O)CCCCC[C@H](NC(=O)c1cncs1)c1ncc(-c2ccn3ncnc3c2)[nH]1 [Entry 125, (S)-N-(1-(5-([1,2,4]triazolo[1,5-a]pyridin-7-yl)-1H-imidazol-2-yl)-7-(methylamino)-7-oxoheptyl)thiazole-5-carboxamide] | > 5 | > 5
CNC(=O)CCCCC[C@H](NC(=O)c1cncs1)c1ncc(-c2ccc3ncccc3c2)[nH]1 [Entry 127, (S)-N-(7-(methylamino)-7-oxo-1-(5-(quinolin-6-yl)-1H-imidazol-2-yl)heptyl)thiazole-5-carboxamide] | 1 to 5 | < 1
CNC(=O)CCCCC[C@H](NC(=O)c1cncs1)c1ncc(-c2ccc3ccccc3n2)[nH]1 [Entry 128, (S)-N-(7-(methylamino)-7-oxo-1-(5-(quinolin-2-yl)-1H-imidazol-2-yl)heptyl)thiazole-5-carboxamide] | > 5 | 1 to 5
CNC(=O)CCCCC[C@H](NC(=O)c1cncs1)c1ncc(-c2ccc(Cl)c(Cl)c2)[nH]1 [Entry 129, (S)-N-(1-(5-(3,4-dichlorophenyl)-1H-imidazol-2-yl)-7-(methylamino)-7-oxoheptyl)thiazole-5-carboxamide] | > 5 | > 5
CNC(=O)CCCCC[C@H](NC(=O)CCN1CCOCC1)c1ncc(-c2cc3ccccc3nc2OC)[nH]1 [Entry 130] | > 5 | 1 to 5
CNC(=O)CCCCC[C@H](NC(=O)CCN1CCN(C)CC1)c1ncc(-c2cc3ccccc3nc2OC)[nH]1 [Entry 131] | < 1 | 1 to 5
CNC(=O)CCCCC[C@H](NC(=O)c1cncs1)c1ncc(-c2ccc3c(ccn3C)c2)[nH]1 [Entry 132, (S)-N-(1-(5-(1-methyl-1H-indol-5-yl)-1H-imidazol-2-yl)-7-(methylamino)-7-oxoheptyl)thiazole-5-carboxamide] | < 1 | < 1
CNC(=O)CCCCC[C@H](NC(=O)C1(C)CCOCC1)c1ncc(-c2cc3ccccc3nc2OC)[nH]1 [Entry 133, (S)-N-(1-(5-(2-methoxyquinolin-3-yl)-1H-imidazol-2-yl)-7-(methylamino)-7-oxoheptyl)-4-methyltetrahydro-2H-pyran-4-carboxamide] | 1 to 5 | 1 to 5
CNC(=O)CCCCC[C@H](NC(=O)CCc1cnn(C)c1)c1ncc(-c2cc3ccccc3nc2OC)[nH]1 [Entry 134] | > 5 | 1 to 5
CNC(=O)CCCCC[C@H](NC(=O)c1ccn(C)n1)c1ncc(-c2cc3ccccc3nc2OC)[nH]1 [Entry 135, (S)-N-(1-(5-(2-methoxyquinolin-3-yl)-1H-imidazol-2-yl)-7-(methylamino)-7-oxoheptyl)-1-methyl-1H-pyrazole-3-carboxamide] | > 5 | 1 to 5
